The numbers were not newly measured in PubChem BioAssay AID1259409 (Chemical Carcinogenesis Research Information System (CCRIS), 2018), which cites them from elsewhere.

Several values for one entry are separate records, joined by “and”; a condition that tells them apart may be missing. Identical values can stand only once.

The test system of the data set is rodent chemically induced tumor inhibition, incidence and multiplicity. Nature of the data set: CCRIS tumor inhibitor studies. The conditions noted are these: Promoter: NONE USED.

As for `CCOc1ccc2c(c1)C(C)=CC(C)(C)N2`, the “tumour outcome (control, treated, inhibition, significance)” value by setting is: (Carcinogen: 1,2-DIMETHYLHYDRAZINE, 540-73-8, Dose [Inhibitor]: 0, 0.8% IN DIET BEGINNING 1 WK POST LAST CARCINOGEN DOSE AND CONTINUING FOR 36 WK (STUDY DURATION: 40 WK), Route [Inhibitor]: ORAL, Species: RAT, Strain/Sex: F344/MALE, Target Tissue: Type of Lesion: COLON: ADENOMA, Dose [Carcinogen]: 20 MG/KG 1/WK FOR 4 WK) 1/20 (5%), 4/18 (22%), -340%, not calculated; (Carcinogen: 1,2-DIMETHYLHYDRAZINE, 540-73-8, Dose [Inhibitor]: 0, 0.8% IN DIET BEGINNING 1 WK POST LAST CARCINOGEN DOSE AND CONTINUING FOR 36 WK (STUDY DURATION: 40 WK), Route [Inhibitor]: ORAL, Species: RAT, Strain/Sex: F344/MALE, Target Tissue: Type of Lesion: COLON: CARCINOMA, Dose [Carcinogen]: 20 MG/KG 1/WK FOR 4 WK) 6/20 (30%), 7/18 (39%), -30%, not calculated; (Carcinogen: 7,12-DIMETHYLBENZ[A]ANTHRACENE, 57-97-6, Dose [Inhibitor]: 200 MG IN 1 ML OLIVE OIL ONCE (STUDY DURATION: 18 WK), Route [Inhibitor]: GAVAGE, Species: RAT, Strain/Sex: SPRAGUE-DAWLEY/FEMALE, Target Tissue: Type of Lesion: MAMMARY GLAND: TUMOR, Dose [Carcinogen]: 12 MG IN 1 ML OLIVE OIL ADMINISTERED 1 HR AFTER INHIBITOR) 27/34 (79%), 2/17 (12%), 85%, p<0.01; (Carcinogen: CIPROFIBRATE, 52214-84-3, Dose [Inhibitor]: 0.5% IN DIET FOR 60 WK (STUDY DURATION: 60 WK), Route [Inhibitor]: ORAL, Species: RAT, Strain/Sex: F344/MALE, Target Tissue: Type of Lesion: LIVER: TUMOR, Dose [Carcinogen]: 10 MG/KG BODY WEIGHT IN DIET SIMULTANEOUSLY WITH INHIBITOR FOR 60 WK) 21/25 (84%), 7/24 (29%), 65%, p<0.005 and 22/25 (88%), 4/24 (17%), 81%, p<0.005; (Carcinogen: N-BIS(2-HYDROXYPROPYL)NITROSAMINE, 53609-64-6, Dose [Inhibitor]: 0, 0.8% IN DIET FOR 30 WK BEGINNING POST CARCINOGEN TREATMENT (STUDY DURATION: 32 WK0, Route [Inhibitor]: ORAL, Species: RAT, Strain/Sex: F344/MALE, Target Tissue: Type of Lesion: THYROID: ADENOMA, Dose [Carcinogen]: 0.1% IN DRINKING WATER FOR 2 WK) 1/20 (5%), 19/20 (95%), -1800%, p<0.001; (Carcinogen: N-BIS(2-HYDROXYPROPYL)NITROSAMINE, 53609-64-6, Dose [Inhibitor]: 0, 0.8% IN DIET FOR 30 WK BEGINNING POST CARCINOGEN TREATMENT (STUDY DURATION: 32 WK), Route [Inhibitor]: ORAL, Species: RAT, Strain/Sex: F344/MALE, Target Tissue: Type of Lesion: BLADDER: ADENOMA, Dose [Carcinogen]: 0.1% IN DRINKING WATER FOR 2 WK) 5%, 5%, 0%, not significant. In addition, the “tumour outcome (control, treated, inhibition, significance)” value by setting is: (Carcinogen: N-BIS(2-HYDROXYPROPYL)NITROSAMINE, 53609-64-6, Dose [Inhibitor]: 0, 0.8% IN DIET FOR 30 WK BEGINNING POST CARCINOGEN TREATMENT (STUDY DURATION: 32 WK), Route [Inhibitor]: ORAL, Species: RAT, Strain/Sex: F344/MALE, Target Tissue: Type of Lesion: KIDNEY: TUMOR, Dose [Carcinogen]: 0.1% IN DRINKING WATER FOR 2 WK) 10%, 30%, -200%, not calculated; (Carcinogen: N-BIS(2-HYDROXYPROPYL)NITROSAMINE, 53609-64-6, Dose [Inhibitor]: 0, 0.8% IN DIET FOR 30 WK BEGINNING POST CARCINOGEN TREATMENT (STUDY DURATION: 32 WK), Route [Inhibitor]: ORAL, Species: RAT, Strain/Sex: F344/MALE, Target Tissue: Type of Lesion: LUNG: ADENOMA, Dose [Carcinogen]: 0.1% IN DRINKING WATER FOR 2 WK) 100%, 95%, 5%, not calculated; (Carcinogen: N-BIS(2-HYDROXYPROPYL)NITROSAMINE, 53609-64-6, Dose [Inhibitor]: 0, 0.8% IN DIET FOR 30 WK BEGINNING POST CARCINOGEN TREATMENT (STUDY DURATION: 32 WK), Route [Inhibitor]: ORAL, Species: RAT, Strain/Sex: F344/MALE, Target Tissue: Type of Lesion: LUNG: CARCINOMA, Dose [Carcinogen]: 0.1% IN DRINKING WATER FOR 2 WK) 45%, 15%, 67%, p<0.05; (Carcinogen: N-BIS(2-HYDROXYPROPYL)NITROSAMINE, 53609-64-6, Dose [Inhibitor]: 0, 0.8% IN DIET FOR 30 WK BEGINNING POST CARCINOGEN TREATMENT (STUDY DURATION: 32 WK), Route [Inhibitor]: ORAL, Species: RAT, Strain/Sex: F344/MALE, Target Tissue: Type of Lesion: THYROID: ADENOMA, Dose [Carcinogen]: 0.1% IN DRINKING WATER FOR 2 WK) 5%, 95%, -1800%, p<0.001; (Carcinogen: N-BIS(2-HYDROXYPROPYL)NITROSAMINE, 53609-64-6, Dose [Inhibitor]: 0, 0.8% IN DIET FOR 30 WK BEGINNING POST CARCINOGEN TREATMENT (STUDY DURATION: 32 WK), Route [Inhibitor]: ORAL, Species: RAT, Strain/Sex: F344/MALE, Target Tissue: Type of Lesion: THYROID: CARCINOMA, Dose [Carcinogen]: 0.1% IN DRINKING WATER FOR 2 WK) 20%, 50%, -150%, not calculated; (Carcinogen: N-ETHYL-N-HYDROXYETHYLNITROSAMINE, 13147-25-6, Dose [Inhibitor]: 0.8% IN DIET BEGINNING 1 WK AFTER LAST CARCINOGEN TREATMENT AND CONTINUING THROUGH DURATION OF STUDY (STUDY DURATION: 32, Route [Inhibitor]: ORAL, Species: RAT, Strain/Sex: F344/MALE, Target Tissue: Type of Lesion: KIDNEY: ADENOMA, Dose [Carcinogen]: 0.1% IN DRINKING WATER FOR 2 WK AT BEGINNING OF STUDY) 5/23 (22%), 17/27 (63%), -186%, p<0.001. Further, the “tumour outcome (control, treated, inhibition, significance)” value is 11/23 (48%), 3/27 (11%), 77%, p<0.05 (Carcinogen: N-ETHYL-N-HYDROXYETHYLNITROSAMINE, 13147-25-6, Dose [Inhibitor]: 0.8% IN DIET BEGINNING 1 WK AFTER LAST CARCINOGEN TREATMENT AND CONTINUING THROUGH DURATION OF STUDY (STUDY DURATION: 32, Route [Inhibitor]: ORAL, Species: RAT, Strain/Sex: F344/MALE, Target Tissue: Type of Lesion: LIVER: HEPATOCELLULAR CARCINOMA, Dose [Carcinogen]: 0.1% IN DRINKING WATER FOR 2 WK AT BEGINNING OF STUDY); 100%, 100%, 0%, not significant (Carcinogen: URETHANE, 51-79-6, Dose [Inhibitor]: 0.75% IN DIET 1/WK FOR 24 HR AFTER OVERNIGHT FAST TREATMENT REPEATED FOR 8 CONSECUTIVE WK BEGINNING 1 D AFTER CARCINOGEN, Route [Inhibitor]: ORAL, Species: MOUSE, Strain/Sex: STRAIN A/MALE, Target Tissue: Type of Lesion: LUNG: TYPE II ALVEOLAR CELL TUMORS, CLARA CELL TUMORS, Dose [Carcinogen]: 500 MG/KG ONCE AT 8 WK OF AGE); 3/11 (27%), 1/15 (7%), 74%, not calculated (Dose [Inhibitor]: 0.05% DIET FOR 2 WK STARTING 2 WK PRIOR TO START OF CARCINOGEN TREATMENT (STUDY DURATION: 48 WK), Route [Inhibitor]: ORAL, Species: RAT, Strain/Sex: F344/MALE, Target Tissue: Type of Lesion: LIVER: CELL TUMOR, Dose [Carcinogen]: 4 PPM IN DIET DAILY FOR 6 WK); 3/11 (27%), 1/12 (8%), 70%, not calculated (Dose [Inhibitor]: 0.05% IN DIET FOR 2 WK STARTING 2 WK PRIOR TO INITIATION OF CARCINOGEN TREATMENT (STUDY DURATION: 48 WK), Route [Inhibitor]: ORAL, Species: RAT, Strain/Sex: F344/MALE, Target Tissue: Type of Lesion: LIVER: LIVER CELL TUMOR, Dose [Carcinogen]: 4 PPM IN DIET FOR 6 WK FOLLOWED BY 40 WK ON CONTROL DIET); 3/11 (27%), 0/15 (0%), 100%, not calculated (Dose [Inhibitor]: 0.5% DIET FOR 2 WK STARTING 2 WK PRIOR TO START OF CARCINOGEN TREATMENT (STUDY DURATION: 48 WK), Route [Inhibitor]: ORAL, Species: RAT, Strain/Sex: F344/MALE, Target Tissue: Type of Lesion: LIVER: CELL TUMOR, Dose [Carcinogen]: 4 PPM IN DIET DAILY FOR 6 WK); 3/11 (27%), 3/15 (20%), 26%, not significant (Dose [Inhibitor]: 0.5% DIET FOR 2 WK STARTING POST CARCINOGEN TREATMENT AND FOLLOWED BY 40 WK ON CONTROL DIET (STUDY DURATION: 48 WK), Route [Inhibitor]: ORAL, Species: RAT, Strain/Sex: F344/MALE, Target Tissue: Type of Lesion: LIVER: CELL TUMOR, Dose [Carcinogen]: 4 PPM DIET DAILY FOR 6 WK). For the same compound, the “tumour outcome (control, treated, inhibition, significance)” value is given as 3/11 (27%), 0/15 (0%), 100%, not calculated (Dose [Inhibitor]: 0.5% DIET FOR 6 WK ADMINISTERED CONCURRENTLY WITH CARCINOGEN TREATMENT FOLLOWED BY 42 WK ON CONTROL DIET (STUDY DURATION, Route [Inhibitor]: ORAL, Species: RAT, Strain/Sex: F344/MALE, Target Tissue: Type of Lesion: LIVER: CELL TUMOR, Dose [Carcinogen]: 4 PPM DIET DAILY FOR 6 WK); 3/11 (27%), 0/15 (0%), 100%, not calculated (Dose [Inhibitor]: 0.5% IN DIET FOR 2 WK STARTING 2 WK PRIOR TO INITIATION OF CARCINOGEN (STUDY DURATION: 48 WK), Route [Inhibitor]: ORAL, Species: RAT, Strain/Sex: F344/MALE, Target Tissue: Type of Lesion: LIVER: LIVER CELL TUMOR, Dose [Carcinogen]: 4 PPM IN DIET FOR 6 WK FOLLOWED BY 40 WK ON CONTROL DIET); 3/11 (20%), 0/9 (0%), 100%, not calculated (Dose [Inhibitor]: 0.5% IN DIET FOR 6 WK ADMINISTERED SIMULTANEOUSLY WITH CARCINOGEN FOLLOWED BY 42 WK ON CONTROL DIET (STUDY DURATION: 48, Route [Inhibitor]: ORAL, Species: RAT, Strain/Sex: F344/MALE, Target Tissue: Type of Lesion: LIVER: LIVER CELL TUMOR, Dose [Carcinogen]: 4 PPM IN DIET FOR 6 WK). Further, for the setting “Carcinogen: N-ETHYL-N-HYDROXYETHYLNITROSAMINE, 13147-25-6, Dose [Inhibitor]: 0.8% IN DIET BEGINNING 1 WK AFTER LAST CARCINOGEN TREATMENT AND CONTINUING THROUGH DURATION OF STUDY (STUDY DURATION: 32, Route [Inhibitor]: ORAL, Species: RAT, Strain/Sex: F344/MALE, Target Tissue: Type of Lesion: KIDNEY: ADENOCARCINOMA, Dose [Carcinogen]: 0.1% IN DRINKING WATER FOR 2 WK AT BEGINNING OF STUDY”, the outcome is given as 0/23 (0%), 3/27 (11%), -11%, not significant.
